According to patent publication US11136283B2, “Recovering and purifying resveratrol produced by microbial fermentation” (EVOLVA SA, priority 2017, dated 2021):
Values joined by “and” are separate entries in the source; they are usually repeats but may differ in a detail not shown here. Equal values may be shown once.

Assay: Stability of resveratrol in ultrafiltration filtrates concentrated by reverse osmosis and held at pH 11
Assay type: physicochemical
Settings: held at pH 11 for 3 to 7 days at 5° C. to 8° C., at production vs 7 days after
Experimental: It is advantageous for process intermediate materials to have a high degree of stability, so that they can be processed over time without the need for immediate processing on equipment with high capacity. The various filtrates from the ultrafiltration tests were concentrated by reverse osmosis and held at pH 11 for 3 to 7 days at 5° C. to 8° C. to evaluate their stability. The product decomposition is a comparison between the composition at the time of production and that measured 7 days after production. The stability improved monotonically as the molecular weight cutoff of the ultrafilter was decreased from 100 kDa to 25 kDa to 5 kDa. 11%, 7%, and 5% of the resveratrol was decomposed in the respective tests.

## Oc1ccc(/C=C/c2cc(O)cc(O)c2)cc1 [resveratrol, 3,5,4′-trihydroxy-trans-stilbene]
Filtrate from GR40PP 100 kDa ultrafilter, broth EFSC4687
  Product Decomposition: 11.5%
Filtrate from GR40PP 100 kDa ultrafilter, broth EFSC 21811
  Product Decomposition: 11% and 10.7%
Filtrate from GR60PP 25 kDa ultrafilter
  Product Decomposition: 7%
Filtrate from GR90PP 5 kDa ultrafilter
  Product Decomposition: 5%
